Data on one molecule can be found in ChEMBL document CHEMBL3887002, “Biaryl ether sulfonamides and their use as therapeutic agents” (2016).

SMILES strings stand for the structures.

The target of this assay is Sodium channel protein type 9 subunit alpha (Homo sapiens, UniProt Q15858). Description: Electrophysiological Assay (In vitro Assay): Patch voltage clamp electrophysiology allows for the direct measurement and quantification of block of voltage-gated sodium channels (Nav's), and allows the determination of the time- and voltage-dependence of block which has been interpreted as differential binding to the resting, open, and inactivated states of the sodium channel (Hille, B., Journal of General Physiology (1977), 69: 497-515).The following patch voltage clamp electrophysiology studies were performed on representative compounds of the invention using human embryonic kidney cells (HEK), permanently transfected with an expression vector containing the full-length cDNA coding for the desired human sodium channel α-subunit, grown in culture media containing 10% FBS, 1% PSG, and 0.5 mg/mL G418 at 37° C. with 5% CO2. […] Nav1.7 and Nav1.5 cDNAs (NM_00297. It is filed as cell-based, HEK293.
Sequence of Sodium channel protein type 9 subunit alpha (Q15858 whole entry): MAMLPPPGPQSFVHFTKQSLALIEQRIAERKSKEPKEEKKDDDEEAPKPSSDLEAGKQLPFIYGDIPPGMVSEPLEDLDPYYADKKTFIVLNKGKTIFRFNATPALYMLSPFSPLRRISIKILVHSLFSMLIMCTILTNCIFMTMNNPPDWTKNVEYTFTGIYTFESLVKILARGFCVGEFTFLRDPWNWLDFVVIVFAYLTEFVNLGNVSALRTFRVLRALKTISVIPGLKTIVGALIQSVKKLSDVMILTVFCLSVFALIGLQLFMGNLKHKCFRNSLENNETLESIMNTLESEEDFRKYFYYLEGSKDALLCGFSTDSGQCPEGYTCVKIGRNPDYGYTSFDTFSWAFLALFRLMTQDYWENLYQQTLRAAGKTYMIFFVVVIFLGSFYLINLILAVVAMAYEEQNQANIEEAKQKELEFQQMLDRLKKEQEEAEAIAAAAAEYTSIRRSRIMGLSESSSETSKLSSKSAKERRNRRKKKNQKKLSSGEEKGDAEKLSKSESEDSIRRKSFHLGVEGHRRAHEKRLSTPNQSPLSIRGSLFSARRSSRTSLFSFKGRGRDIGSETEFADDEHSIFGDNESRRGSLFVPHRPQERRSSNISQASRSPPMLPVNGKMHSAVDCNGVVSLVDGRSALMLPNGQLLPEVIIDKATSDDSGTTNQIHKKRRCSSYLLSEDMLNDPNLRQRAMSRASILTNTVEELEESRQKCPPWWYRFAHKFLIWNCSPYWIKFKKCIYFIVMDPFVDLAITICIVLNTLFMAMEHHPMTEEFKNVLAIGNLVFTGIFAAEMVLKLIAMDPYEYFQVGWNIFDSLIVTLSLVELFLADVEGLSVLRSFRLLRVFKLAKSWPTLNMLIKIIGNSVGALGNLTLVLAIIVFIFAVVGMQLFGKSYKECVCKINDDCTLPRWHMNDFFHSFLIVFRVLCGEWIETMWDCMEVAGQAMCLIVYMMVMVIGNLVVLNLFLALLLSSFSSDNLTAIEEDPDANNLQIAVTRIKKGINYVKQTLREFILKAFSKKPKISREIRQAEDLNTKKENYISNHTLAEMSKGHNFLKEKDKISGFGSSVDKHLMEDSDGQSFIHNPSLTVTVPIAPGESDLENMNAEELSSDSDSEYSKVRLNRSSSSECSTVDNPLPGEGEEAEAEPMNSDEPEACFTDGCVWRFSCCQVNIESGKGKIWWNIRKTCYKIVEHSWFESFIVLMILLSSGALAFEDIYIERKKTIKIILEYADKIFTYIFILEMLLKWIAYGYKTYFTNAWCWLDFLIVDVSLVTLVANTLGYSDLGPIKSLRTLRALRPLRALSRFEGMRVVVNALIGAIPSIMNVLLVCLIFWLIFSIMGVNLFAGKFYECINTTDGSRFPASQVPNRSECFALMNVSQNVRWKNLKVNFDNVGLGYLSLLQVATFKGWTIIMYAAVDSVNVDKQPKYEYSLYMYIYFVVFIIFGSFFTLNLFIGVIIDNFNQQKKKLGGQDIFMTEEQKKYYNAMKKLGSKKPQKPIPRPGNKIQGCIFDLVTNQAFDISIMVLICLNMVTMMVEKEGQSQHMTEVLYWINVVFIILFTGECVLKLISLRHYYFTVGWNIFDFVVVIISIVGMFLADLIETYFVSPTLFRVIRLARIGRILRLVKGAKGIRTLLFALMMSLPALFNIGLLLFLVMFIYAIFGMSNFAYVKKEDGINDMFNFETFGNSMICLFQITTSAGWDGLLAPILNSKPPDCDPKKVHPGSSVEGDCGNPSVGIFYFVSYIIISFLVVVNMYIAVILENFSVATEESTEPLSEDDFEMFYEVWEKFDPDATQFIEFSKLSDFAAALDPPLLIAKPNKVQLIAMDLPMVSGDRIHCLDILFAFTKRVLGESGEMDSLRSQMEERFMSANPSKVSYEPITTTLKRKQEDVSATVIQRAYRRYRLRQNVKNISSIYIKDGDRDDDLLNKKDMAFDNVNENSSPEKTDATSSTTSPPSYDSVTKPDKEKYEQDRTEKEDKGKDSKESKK

Turning to `O=S(=O)(Nc1ncccc1F)c1cc(F)c(Oc2ccc(Cl)cc2-c2cccc3nccn23)cc1F`, the IC50 worked out at 23.2 nM.

By IC50 is commonly meant the concentration that inhibits the measured activity by half. Lower therefore signals greater potency.
